Here are results for three compounds from US4983620A, “Pharmacologically active alkylthiobenzimidazole derivatives and process for the preparation thereof” (Dompe Farmaceutici S.p.A., priority 1988, dated 1991).

The subject of series [1] is mortality induced by histamine. Description: Effect on the mortality induced by histamine. It counts as in vivo, male albino guinea pigs (Dunkin-Hartley). Particulars: Cavia porcellus, ip, 30 minutes before 1.25 mg/kg i.v. histamine dihydrochloride; guinea pigs; read-out: Histamine mortality ID50. The method, then:
The method described by Romer D. et al., (Med. Welt 17, 791, 1966) was followed and the tests were carried out on male albino guinea pigs (Dunkin-Hartley), weighing 350-450 g, which were kept in cages with a grid floor, on an empty stomach for 24 hrs and with water ad libitum.
The compounds (I) were dissolved in saline solution and intraperitoneally administered to the animals: 30 minutes later the same animals were intravenously treated with 1.25 mg/kg of histamine dihydrochloride in saline solution.
It was evaluated ID50 which corresponds to the amount of the compound able to inhibit 50% of the mortality induced by histamine: the estimation of ID50 was carried out by applying the `probit` method (Finney D. J. "Statistical Method in Biological Assay" p. 512, 1957).

In series [2] the target is T1, H1 histaminergic receptors (Rattus norvegicus, UniProt P31390).
T1 construct: in homogenates of rat brain; from tissue; host or cells: rat whole brain homogenate
Description: Affinity towards H1 histaminergic receptors ([3H]Mepyramine displacement, rat brain homogenates). The conditions noted are these: 2 nM [3H]Mepyramine, 25° C., 15 minutes, pH 7.5, read-out: H1-receptor binding IC50. The protocol:
The affinity of the examined compounds towards H1 histaminergic receptors as evaluated by displacement curves which were obtained of different concentrations, against [^3 H]
The incubation was performed at 25° C. for 15 minutes, in a final volume of 1 ml of […] Na/K phosphate buffer, pH 7.5, in the presence of 2 nM [^3 H] Mepyramina and 1.5 mg of cerebral protein. Aspecific binding was defined as the residual radioactivity bound in the presence of […] Clemastine. The test compounds were dissolved in phosphate buffer or dimethylsulfoxide (DMSO), the final concentration of DMSO was 0.5%. Incubation was terminated by filtration through glass fiber GF/B filters pre-soaked with 0.1% polyethylenimine (PEI). The radioactivity trapped by filters was counted by liquid scintillation.

In series [3] the test system is mortality induced by compound 48/80. Description: Effect on the mortality induced by compound 48/80. It counts as in vivo, Sprague Dawley Nos male rats. The conditions noted are these: Rattus norvegicus, ip, 4 h; i.p., 30 minutes before 2 mg/kg i.v. compound 48/80; rats; read-out: Compound 48/80 mortality ID50. The method, then:
The tests were carried out according to the method described by C. J. E. Niemergeers et al., Arch. Int. Pharmacodyn., 234,164,-1978. Sprague Dawley Nos male rats (Nossan, Correzzana, Milano) weighing 140-150 g, divided into groups of 10 animals each, on an empty stomach for 24 hrs and with water ad libitum, were kept in cages with a grid floor, then treated intravenously with 2 mg/kg of compound 48/80 (1 ml/rat). The compound (I) or the carrier were dissolved in water (5 ml/kg) and intraperitoneally administered to the animals 30 minutes before the treatment with the compound 48/80. The mortality occurred in the group of treated animals during the first 4 hours following the treatment was noted down. The results were expressed as the number of animals dead with respect to the number of treated animals.
The experimental data were submitted to the variance analysis and to the subsequent multiple comparisons according to Dunnett (D. J. Finney, "Statistical Method in Biological Assay", Ed. L. Griffin and Co., Ltd., pg. 152-157, Edition Ames, Iowa, 1971).

Series [4] is described as follows: Acute toxicity (LD50) on mice. Particulars: mouse, in vivo, ip. The protocol:
The Letal Dose50 (LD50) was evaluated on mice using Swiss Nos (Nossan, Correzzana, Milano) mice weighing 18-20 g each. The animals, divided into groups of 10 animals each (5M+5F), were on an empty stomach for 18 hrs, with water ad libitum, and kept in cages with a grid floor. The compounds (I) were dissolved in water or suspended in 0.5% carboxymethylcellulose and intraperitioneally administered to the animals (10 ml/kg). The mortality occurred in the tested animals within the following 6 hours was noted down. At the expiry of the 6th hour, the animals were allowed to eat up to the end of the experimentation which lasted 14 days. During this period all the toxic symptoms and the mortality occurring were noted.
The animals which died during the test period and those which were sacrificed at the end of the same, underwent autopsy for a macroscopic examination of their main organs. The experimental data were statistically compared with the X^2 method and LD50 was extrapolated by the `probit` method.

Series [5] is described as follows: Effect on the sleeping time. It counts as in vivo. Particulars: 25 mg/kg i.p.

Where a name gives a salt, the structure may show the parent alone. Some results are limits rather than exact numbers.

T1 sequence (P31390 whole entry): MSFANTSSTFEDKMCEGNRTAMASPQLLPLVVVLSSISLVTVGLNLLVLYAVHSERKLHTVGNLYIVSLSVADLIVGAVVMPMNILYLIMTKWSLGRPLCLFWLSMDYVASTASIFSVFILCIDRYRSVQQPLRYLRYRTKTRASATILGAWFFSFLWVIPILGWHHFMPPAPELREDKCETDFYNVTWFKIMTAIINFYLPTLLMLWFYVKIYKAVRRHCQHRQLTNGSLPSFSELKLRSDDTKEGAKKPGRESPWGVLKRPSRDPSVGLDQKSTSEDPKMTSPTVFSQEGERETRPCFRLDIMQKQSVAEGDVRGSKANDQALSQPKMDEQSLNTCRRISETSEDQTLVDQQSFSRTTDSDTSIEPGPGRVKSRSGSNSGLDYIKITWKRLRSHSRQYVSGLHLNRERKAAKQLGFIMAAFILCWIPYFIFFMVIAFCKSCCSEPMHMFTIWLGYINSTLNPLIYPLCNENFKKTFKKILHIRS

Take `CCOCCn1c(SCC(C)N(C)C)nc2ccccc21` (centres unmarked) [Example 5, 1-(2-Ethoxyethyl)-2-(2-dimethylaminoisopropylthio)benzimidazole]: the ED50 worked out at 0.05 mg/kg in series [1] and 0.009 mg/kg in series [3]. The IC50 in series [2] came out at 6.1 nM. Besides, the LD50 at 336 h in series [4] was around 100 mg/kg. In series [5], the “Sleeping time % increase” value was found to be 10%.

On to `CC(C)(C)c1ccc(C(O)CCCN2CCC(C(O)(c3ccccc3)c3ccccc3)CC2)cc1` (centres unmarked) [Terfenadine, reference compound], for which the ED50 in series [1] is 0.735 mg/kg; in series [3] it was 1.99 mg/kg. For the same compound, the LD50 at 336 h in series [4] is above 100 mg/kg. In series [5], the “Sleeping time % increase” value is given as 8%.

For `CCOCCn1c(SCCN(C)C)nc2ccccc21` [Example 3, 1-(2-Ethoxyethyl)-2-(2-dimethylaminoethylthio)benzimidazole. 2 HCl], the ED50 in series [1] is 0.0109 mg/kg; in series [3], 0.008 mg/kg. In addition, the IC50 in series [2] was 2.4 nM. The 50% lethal dose (LD50) at 336 h in series [4] is above 100 mg/kg. Also, in series [5], the “Sleeping time % increase” value amounted to 5%.
